Data published in patent publication US4178456A, “Prostenoic acids and esters” (American Cyanamid Company, priority 1977, dated 1979).

How the values were obtained:
[1] = tested on: collagen induced platelet aggregation; assay: Inhibition of Platelet Aggregation-In Vitro, collagen induced; assay type: cell-based, human; parameters: key: (-): Inhibition; (+): No Inhibition
Text: (§1) It is well known that platelet aggregation inhibitors may be useful as anti-thrombotic drugs. Inhibition of platelet aggregation can be conveniently measured in vitro by monitoring changes in optical density and/or light transmission in platelet rich plasma upon addition of suitable aggregating agents such as adenosine diphosphate, epinephrine, thrombin or collagen. Alternatively, platelet aggregation can be measured in vitro using platelet rich plasma obtained at various time intervales from animals given inhibitors by an oral or parenteral route.
(§2) Human […] is incubated with modified Tyrode's solution in a proportion of 40-50% human […]. The test compounds are added at varying concentrations and after 5 minutes incubation, an aggregating agent such as adenosine diphosphate or collagen is added. The change in optical density (light transmission) is monitored by eye and inhibition is recorded as a (-) or lack of inhibition is recorded as a (+). Test compounds are considered active if they inhibit adenosine diphosphate or collagen induced aggregation at a concentration of 25 mcg/ml or less within 5-10 minutes.

[2] = tested on: adenosine diphosphate induced platelet aggregation; assay: Inhibition of Platelet Aggregation-In Vitro, adenosine diphosphate induced; assay type: cell-based, human; parameters: key: (-): Inhibition; (+): No Inhibition
Text: as §1, §2

[3] = tested on: bronchospasms elicited by histamine; assay: Bronchodilator Activity (Konzett procedure), histamine; assay type: in vivo, guinea pigs; settings: Cavia porcellus; three logarithmic cumulative intravenous doses
Protocol: (§3) Bronchodilator activity is determined in guinea pigs against bronchospasms elicited by intravenous injections of 5-hydroxytryptamine, histamine or acetylcholine by the Konzett procedure. [See J. Lulling, P. Lievens, F. El Sayed and J. Prignot, Arzeneimittel-Forschung, 18, 995 (1968).] In Table D, bronchodilator activity for representative compounds of this invention against one or more of the three spasmogenic agents is expressed as an ED50 determined from the results obtained with three logarithmic cumulative intravenous doses.

[4] = tested on: bronchospasms elicited by 5-hydroxytryptamine; assay: Bronchodilator Activity (Konzett procedure), 5-hydroxytryptamine; assay type: in vivo, guinea pigs; settings: Cavia porcellus; three logarithmic cumulative intravenous doses
Protocol: as §3

[5] = tested on: bronchospasms elicited by acetylcholine; assay: Bronchodilator Activity (Konzett procedure), acetylcholine; assay type: in vivo, guinea pigs; settings: Cavia porcellus; three logarithmic cumulative intravenous doses
Protocol: as §3

[6] = tested on: mean arterial blood pressure; assay: Hypotensive Activity in anesthetized rats; assay type: in vivo, Male Wistar strain rats; settings: dose 2.1 mg/kg, intravenous (jugular) infusion over one minute, 4 animals, urethane anesthesia
Protocol: This procedure is a modification of the technique described by Pike, et al., Prostaglandins, Nobel Symposium 2, Stockholm, June, 1966, pg. 165.
Male Wistar strain rats (Royal Hart Farms) averaging approximately 250 g in weight are fastened to rat boards in a supine position by means of canvas vests and limb ties. The animals are anesthetized with a 900 mg/kg intraperitoneal dose of urethane. The left carotid artery is cannulated with polyethylene 50 tubing to measure arterial blood pressure and the left external jugular vein is cannulated with polyethylene 50 tubing for drug infusion. The animals are allowed to equilibrate for 15-30 minutes. The test compound is infused in 0.5 ml of saline, over a one minute period, at the indicated dose level, using a Harvard model 940 infusion pump and a 6 cc syringe at speed 5. Each drug dose is flushed with 0.4 ml of saline. The mean arterial blood pressure is measured before and after drug administration using a Statham model P23Db pressure transducer and a Brush model 260 recorder. The percent depression in mean arterial blood pressure and the duration of at least a 10% depression induced by representative compounds of this invention are recorded in Table C.

Structure (SMILES): O=C(O)CCC/C=C\C[C@@H]1[C@@H](/C=C/C2(O)CCCCC2)[C@H](O)C[C@@H]1O (relative stereo) [nat(and ent)-9α,11α,15-Trihydroxy-15,16-tetramethylene-17,18,19,20-tetranor-13-trans-5-cis-prostadienoic Acid]
- Inhibition of Platelet Aggregation, Collagen ([1]; drug concentration 0.25 ug/ml): (+)
- Inhibition of Platelet Aggregation, Collagen ([1]; drug concentration 2.5 ug/ml): (+)
- Inhibition of Platelet Aggregation, Collagen ([1]; drug concentration 25 ug/ml): (-)
- Inhibition of Platelet Aggregation, Collagen ([1]; drug concentration 250 ug/ml): (-)
- Inhibition of Platelet Aggregation, Adenosine Diphosphate ([2]; drug concentration 0.25 ug/ml): (+)
- Inhibition of Platelet Aggregation, Adenosine Diphosphate ([2]; drug concentration 2.5 ug/ml): (+)
- Inhibition of Platelet Aggregation, Adenosine Diphosphate ([2]; drug concentration 25 ug/ml): (+)
- Inhibition of Platelet Aggregation, Adenosine Diphosphate ([2]; drug concentration 250 ug/ml): (-)

Structure (SMILES): O=C(O)CCCC=CCC1C(O)CC(=O)C1C=CC1(O)CCCCC1 (stereo not drawn) [nat(and ent)-9α,15-Dihydroxy-11-oxo-15,16-tetramethylene-17,18,19,20-tetranor-5-cis-13-trans-prostadienoic Acid]
- Inhibition of Platelet Aggregation, Collagen ([1]; drug concentration 0.25 ug/ml): (+)
- Inhibition of Platelet Aggregation, Collagen ([1]; drug concentration 2.5 ug/ml): (-)
- Inhibition of Platelet Aggregation, Collagen ([1]; drug concentration 25 ug/ml): (-)
- Inhibition of Platelet Aggregation, Collagen ([1]; drug concentration 250 ug/ml): (-)
- Inhibition of Platelet Aggregation, Adenosine Diphosphate ([2]; drug concentration 25 ug/ml): (-)
- Inhibition of Platelet Aggregation, Adenosine Diphosphate ([2]; drug concentration 250 ug/ml): (-)
- ED50 [3]: > 3.2 µg/kg
- ED50 [4]: 0.253 µg/kg
- ED50 [5]: > 3.2 µg/kg
- Duration in Minutes of at Least 10% Depression [6]: > 20 min
- Percent Depression of Mean Arterial Blood Pressure [6]: -29%
